Laboratory results reported in patent US20250127801A1, “BRIDGED TRICYCLIC CARBAMOYLPYRIDONE COMPOUNDS AND USES THEREOF” (priority 2023, published 2025).
Values after ≈ are worked out from the molar mass of the structure shown. Read-outs that look alike come from different tables or passages of the source.

Key:
[1] = system: HIV-1 (IIIB); test: microbe, parasite or virus in culture; type: cell-based
[2] = in vitro; conditions: human; for CC50 at 5 days: uninfected MT-4 cells
[3] = physchem; conditions: 23 °C, thermodynamic from solid; for solubility thermodynamic: fassif; for solubility thermodynamic at 24 h: FaSSIF
[4] = Human immunodeficiency virus 1, IIIB, MT4, 120 h, read-out: MT4 EC50 (nM)
[5] = Human immunodeficiency virus 1, MT4, 120 h, HIV-1 (IIIB) replication in MT-4 cells, 5 days incubation, Cell Titer Glo, read-out: MT4 EC50

EC50 [1, 5] [nM]	solubility thermodynamic at 24 h [3] [µg/mL]	SMILES	EC50 [1, 4] [nM]	CC50 [2] [nM]	solubility thermodynamic [3] [µg/mL]	CC50 at 5 days [2] [nM]
–	–	CC1=NO[C@@]2(CC[C@H](C)N3C[C@H]2n2cc(C(=O)NCc4ccc(F)cc4F)c(=O)c(OCc4ccc(OP(=O)(O)O)cc4)c2C3=O)C1 [Compound 41, 4-((((3′S,5S,7′R)-10′-((2,4-difluorobenzyl)carbamoyl)-3,3′-dimethyl-1′,11′-dioxo-1′,4′,5′,11′-tetrahydro-3′H,4H,7′H-spiro[isoxazole-5,6′-[2,7]methanopyrido[1,2-a][1,4]diazonin]-12′-yl)oxy)methyl)phenyl dihydrogen phosphate]	0.727	12000	5080	–
4.17	4890 (≈ 6.75 mM)	CC1=NO[C@@]2(CC[C@H](C)N3C[C@H]2n2cc(C(=O)NCc4ccc(F)cc4F)c(=O)c(OCOC(=O)OC[C@@H]4C[C@@H]4COP(=O)(O)O)c2C3=O)C1 [Compound 49, (((3′S,5S,7′R)-10′-((2,4-difluorobenzyl)carbamoyl)-3,3′-dimethyl-1′,11′-dioxo-1′,4′,5′,11′-tetrahydro-3′H,4H,7′H-spiro[isoxazole-5,6′-[2,7]methanopyrido[1,2-a][1,4]diazonin]-12′-yl)oxy)methyl (((1R,2S)-2-((phosphonooxy)methyl)cyclopropyl)methyl) carbonate]	–	–	–	23300
–	–	CC1=NO[C@@]2(CC[C@H](C)N3C[C@H]2n2cc(C(=O)NCc4ccc(F)cc4F)c(=O)c(OC(=O)N(C)c4ncccc4CN(C)C(=O)OCOP(=O)(O)O)c2C3=O)C1 [Compound 61, (phosphonooxy)methyl ((2-(((((3′S,5S,7′R)-10′-((2,4-difluorobenzyl)carbamoyl)-3,3′-dimethyl-1′,11′-dioxo-1′,4′,5′,11′-tetrahydro-3′H,4H,7′H-spiro[isoxazole-5,6′-[2,7]methanopyrido[1,2-a][1,4]diazonin]-12′-yl)oxy)carbonyl)(methyl)amino)pyridin-3-yl)methyl)(methyl)carbamate]	1.39	15200	4140 (≈ 5.07 mM)	–
4.42	3 (≈ 0.00361 mM)	CCCCCCCCCCCCCC(=O)OCc1ccccc1C(=O)Oc1c2n(cc(C(=O)NCc3ccc(F)cc3F)c1=O)[C@@H]1CN(C2=O)[C@@H](C)CC[C@]12CC(C)=NO2 [Compound 92, (3′S,5S,7′R)-10′-((2,4-difluorobenzyl)carbamoyl)-3,3′-dimethyl-1′,11′-dioxo-1′,4′,5′,11′-tetrahydro-3′H,4H,7′H-spiro[isoxazole-5,6′-[2,7]methanopyrido[1,2-a][1,4]diazonin]-12′-yl 2-((tetradecanoyloxy)methyl)benzoate]	–	–	–	≥ 50000
2.2	5140 (≈ 6.95 mM)	CC1=NO[C@@]2(CC[C@H](C)N3C[C@H]2n2cc(C(=O)NCc4ccc(F)cc4F)c(=O)c(OCOC(=O)[C@@H]4[C@H](COP(=O)(O)O)[C@H]4C(=O)O)c2C3=O)C1 [Compound 78, (1R,2R,3R)-2-(((((3′S,5S,7′R)-10′-((2,4-difluorobenzyl)carbamoyl)-3,3′-dimethyl-1′,11′-dioxo-1′,4′,5′,11′-tetrahydro-3′H,4H,7′H-spiro[isoxazole-5,6′-[2,7]methanopyrido[1,2-a][1,4]diazonin]-12′-yl)oxy)methoxy)carbonyl)-3-((phosphonooxy)methyl)cyclopropane-1-carboxylic acid]	–	–	–	8050
–	–	CC1=NO[C@@]2(CC[C@H](C)N3C[C@H]2n2cc(C(=O)NCc4ccc(F)cc4F)c(=O)c(OC(=O)OCCC(C)(C)c4c(CC(=O)O)cc(C)cc4OP(=O)(O)O)c2C3=O)C1 [Compound 25, 2-(2-(4-(((((3′S,5S,7′R)-10′-((2,4-difluorobenzyl)carbamoyl)-3,3′-dimethyl-1′,11′-dioxo-1′,4′,5′,11′-tetrahydro-3′H,4H,7′H-spiro[isoxazole-5,6′-[2,7]methanopyrido[1,2-a][1,4]diazonin]-12′-yl)oxy)carbonyl)oxy)-2-methylbutan-2-yl)-5-methyl-3-(phosphonooxy)phenyl)acetic acid]	1.43	11600	4760 (≈ 5.63 mM)	–
1.61	1480 (≈ 2.19 mM)	COC1=NO[C@@]2(CC[C@H](C)N3C[C@H]2n2cc(C(=O)NCc4ccc(F)cc4F)c(=O)c(OCOC(=O)N(C)C[C@@H]4CCCN4)c2C3=O)C1 [Compound 15, (((3′S,5S,7′R)-10′-((2,4-difluorobenzyl)carbamoyl)-3-methoxy-3′-methyl-1′,11′-dioxo-1′,4′,5′,11′-tetrahydro-3′H,4H,7′H-spiro[isoxazole-5,6′-[2,7]methanopyrido[1,2-a][1,4]diazonin]-12′-yl)oxy)methyl methyl(((S)-pyrrolidin-2-yl)methyl)carbamate]	–	–	–	14700
–	–	CC1=NO[C@@]2(CC[C@H](C)N3C[C@H]2n2cc(C(=O)NCc4ccc(F)cc4F)c(=O)c(OCOC(=O)OCc4ccc(OP(=O)(O)O)cc4)c2C3=O)C1 [Compound 19, (((3′S,5S,7′R)-10′-((2,4-difluorobenzyl)carbamoyl)-3,3′-dimethyl-1′,11′-dioxo-1′,4′,5′,11′-tetrahydro-3′H,4H,7′H-spiro[isoxazole-5,6′-[2,7]methanopyrido[1,2-a][1,4]diazonin]-12′-yl)oxy)methyl (4-(phosphonooxy)benzyl) carbonate]	0.71	10900	390 (≈ 0.522 mM)	–
1.48	4660 (≈ 5.22 mM)	CC1=NO[C@@]2(CC[C@H](C)N3C[C@H]2n2cc(C(=O)NCc4ccc(F)cc4F)c(=O)c(OCOC(=O)N(C)c4ncccc4CN(CC(=O)O)C(=O)OCOP(=O)(O)O)c2C3=O)C1 [Compound 7, N-((2-((((((3′S,5S,7′R)-10′-((2,4-difluorobenzyl)carbamoyl)-3,3′-dimethyl-1′,11′-dioxo-1′,4′,5′,11′-tetrahydro-3′H,4H,7′H-spiro[isoxazole-5,6′-[2,7]methanopyrido[1,2-a][1,4]diazonin]-12′-yl)oxy)methoxy)carbonyl)(methyl)amino)-pyridin-3-yl)methyl)-N-(((phosphonooxy)methoxy)carbonyl)glycine]	–	–	–	10800
–	–	CC1=NO[C@@]2(CC[C@H](C)N3C[C@H]2n2cc(C(=O)NCc4ccc(F)cc4F)c(=O)c(OCOC(=O)N(C)Cc4ccc(C(=O)O)cc4OP(=O)(O)O)c2C3=O)C1 [Compound 74, 4-(((((((3′S,5S,7′R)-10′-((2,4-difluorobenzyl)carbamoyl)-3,3′-dimethyl-1′,11′-dioxo-1′,4′,5′,11′-tetrahydro-3′H,4H,7′H-spiro[isoxazole-5,6′-[2,7]methanopyrido[1,2-a][1,4]diazonin]-12′-yl)oxy)methoxy)carbonyl)(methyl)amino)methyl)-3-(phosphonooxy)benzoic acid]	6.61	29400	4860 (≈ 6.05 mM)	–
3.82	4920 (≈ 6.51 mM)	COC1=NO[C@@]2(CC[C@H](C)N3C[C@H]2n2cc(C(=O)NCc4ccc(F)cc4F)c(=O)c(OCOC(=O)OCC4(COP(=O)(O)O)CCC4)c2C3=O)C1 [Compound 48, (((3′S,5S,7′R)-10′-((2,4-difluorobenzyl)carbamoyl)-3-methoxy-3′-methyl-1′,11′-dioxo-1′,4′,5′,11′-tetrahydro-3′H,4H,7′H-spiro[isoxazole-5,6′-[2,7]methanopyrido[1,2-a][1,4]diazonin]-12′-yl)oxy)methyl ((1-((phosphonooxy)methyl)cyclobutyl)methyl) carbonate]	–	–	–	15700
